{"source": "patent US5840688A", "about": "“Eating suppressant peptides” (Research Corporation Technologies, Inc., priority 1995, dated 1998)", "molecules": {"B1": {"name": "apo A-IV: 46,000-Da polypeptide associated with lipoproteins; species of the cited test protein not printed (protein, UniProt P06727 21-396, looked up)", "Apolipoprotein A-IV": "EVSADQVATVMWDYFSQLSNNAKEAVEHLQKSELTQQLNALFQDKLGEVNTYAGDLQKKLVPFATELHERLAKDSEKLKEEIGKELEELRARLLPHANEVSQKIGDNLRELQQRLEPYADQLRTQVSTQAEQLRRQLTPYAQRMERVLRENADSLQASLRPHADELKAKIDQNVEELKGRLTPYADEFKVKIDQTVEELRRSLAPYAQDTQEKLNHQLEGLTFQMKKNAEELKARISASAEELRQRLAPLAEDVRGNLRGNTEGLQKSLAELGGHLDQQVEEFRRRVEPYGENFNKALVQQMEQLRQKLGPHAGDVEGHLSFLEKDLRDKVNSFFSTFKEKESQDKTLSLPELEQQQEQQQEQQQEQVQMLAPLES"}, "B2": {"name": "human apo A-IV: entire human apolipoprotein A-IV molecule obtained from human serum, purified by preparative polyacrylamide gel electrophoresis (protein, UniProt P06727 21-396, looked up)", "Apolipoprotein A-IV": "B1 Apolipoprotein A-IV"}, "B3": {"name": "cholecystokinin (peptide, UniProt P06307 21-115, looked up)", "Cholecystokinin": "QPVPPADPAGSGLQRAEEAPRRQLRVSQRTDGESRAHLGALLARYIQQARKAPSGRMSIVKNLQNLDPSHRISDRDYMGWMDFGRRSAEEYEYPS", "modifications": "Cholecystokinin", "notes": "peptide proposed as affecting eating behavior"}}, "key": {"animal": {"test_system": "animal", "details": "in vivo; cited from earlier work"}, "male Sprague Dawley rats [1]": {"test_system": "male Sprague Dawley rats", "experiment": "Feeding study: food intake after infusion into the third ventricle of 24 h fasted rats", "format": "in vivo, rat", "method": "Animals used in vivo food intake studies were male Sprague Dawley rats weighing between 280 and 320 grams. The rats were housed in a room illuminated from 06:00 to 18:00 hours (twelve hour light-dark cycle) with a temperature maintained at 21 ±1° C. Both tap water and powdered laboratory chow (Laboratory chow #5001, Purina Mills, Inc.) were provided ad libitum to the rats.\nRats used in the study were surgically equipped with an infusion cannula in the third ventricle. Under sodium pentobarbital anesthesia (50 mg/kg ip), each rat was fixed in a stereotaxic apparatus, its skull was exposed, and two small screws were threaded into the skull to anchor the cannula. A three millimeter diameter hole was drilled in the skull on the midline six millimeters anterior to ear bar zero. […]\nIn the feeding study, food was removed twenty four hours before the experiment, but free access to water was allowed. […] After twenty four hours of fasting, each rat was re-fed at 13:00 hour, and powdered food consumption was measured at thirty minutes after the resumption of feeding. […]\nData from the feeding study were evaluated using one-way analysis of variance, and multiple comparisons were carried out using the method of least significant difference. […]"}, "[2]": {"details": "apo A-IV appearing in mesenteric lymph after a lipid meal; cited from earlier work"}, "male Sprague Dawley rats [3]": {"test_system": "male Sprague Dawley rats", "details": "cited from earlier work"}}, "note": "No end group written: not given here.", "data": [{"molecule": "CSCC[C@H](NC(=O)[C@H](CC(C)C)NC(=O)[C@H](Cc1cnc[nH]1)NC(=O)CNC(=O)[C@@H](NC(=O)[C@H](C)NC(=O)[C@H](Cc1c[nH]c2ccccc12)NC(=O)[C@H](CCC(N)=O)NC(=O)[C@H](CC(N)=O)NC(=O)CNC(=O)[C@H](CC(C)C)NC(=O)[C@H](CCCN=C(N)N)NC(=O)[C@H](CCC(N)=O)NC(=O)[C@@H]1CCC(=O)N1)C(C)C)C(N)=O", "note": "[bombesin]", "values": [{"measurement": "food intake in animal studies", "setting": "animal", "result": "decrease food intake"}]}, {"molecule": "EVTSDQVANVMWDYFTQL SNNAKEAVEQLQ (EVTSDQVANVMWDYFTQLSNNAKEAVEQLQ) [SEQ ID NO:1, 30-mer, first thirty amino acids of the mature rat apo A-IV]", "values": [{"measurement": "inhibition of food intake", "setting": "male Sprague Dawley rats [1]; synthetic peptide infused into third ventricle, doses 0.125-1.0 μg per rat, 24 h fasted, food consumption at thirty minutes after re-feeding", "result": "inhibit food intake in a dose-dependent manner"}]}, {"molecule": "Glucagon", "values": [{"measurement": "food intake in animal studies", "setting": "animal", "result": "decrease food intake"}]}, {"molecule": "anorectin", "values": [{"measurement": "food intake in animal studies", "setting": "animal", "result": "decrease food intake"}]}, {"molecule": "calcitonin (CGNLSTCMLGTYTQDFNKFHTFPQTAIGVGAP; ends and bridges not checked; cysteine pairing not given here; UniProt P01258 85-116, looked up) [peptide proposed as affecting eating behavior]", "values": [{"measurement": "food intake in animal studies", "setting": "animal", "result": "decrease food intake"}]}, {"molecule": "corticotropin releasing hormone (SEEPPISLDLTFHLLREVLEMARAEQLAQQAHSNRKLMEII; ends and bridges not checked; UniProt P06850 154-194, looked up) [peptide proposed as affecting eating behavior]", "values": [{"measurement": "food intake in animal studies", "setting": "animal", "result": "decrease food intake"}]}, {"molecule": "cyclo-HisPro", "values": [{"measurement": "food intake in animal studies", "setting": "animal", "result": "decrease food intake"}]}, {"molecule": "enterostatin", "values": [{"measurement": "food intake in animal studies", "setting": "animal", "result": "decrease food intake"}]}, {"molecule": "B1", "values": [{"measurement": "food intake", "setting": "[2]", "result": "suppresses food intake"}, {"measurement": "food intake after central administration", "setting": "male Sprague Dawley rats [3]; administered centrally", "result": "significantly suppressed in a dose-dependent manner"}, {"measurement": "potency administered centrally versus peripherally", "setting": "male Sprague Dawley rats [3]; central vs peripheral administration", "result": "more than 50 fold"}]}, {"molecule": "B2", "values": [{"measurement": "suppression of food intake", "setting": "male Sprague Dawley rats [1]; third ventricle infusion, 1.5 and 3 μg per rat", "result": "effective in suppressing food intake in rats in a dose dependent manner"}]}, {"molecule": "B3", "values": [{"measurement": "food intake in animal studies", "setting": "animal", "result": "decrease food intake"}]}]}
